{
  "source": "patent US20170044230A1",
  "about": "(USTAV ORGANICKE CHEMIE A BIOCHEMIE AV CR, V.V.I., priority 2014, published 2017)",
  "key": {"[1]": {"test_system": "4-5-week old male C57BL/6 mice", "assay": "Growth hormone (GH) release after SC administration to young mice", "assay_type": "in vivo", "conditions": "10 min after SC 5 mg/kg", "method": "4 and 14 at a dose of 5 mg/kg of body weight (0.2 ml/mouse). 10 min after the injection, blood was collected, plasma was prepared and stored at −20° C. until use. GH levels in the plasma samples were determined by Rat/Mouse Growth Hormone ELISA kit (Merck-Millipore, St. Charles, Mo., USA). Ghrelin analogs no."}, "[2]": {"test_system": "mouse model of lipopolysaccharide-induced cachexia", "assay": "Mouse model of lipopolysaccharide-induced cachexia (LPS model)", "assay_type": "in vivo, mice", "method": "Male C57BL/6 mice (Charles River, Germany) were housed at a temperature of 22±2° C. under a daily cycle of 12/12 h light/dark (light from 6:00) with free access to water and a standard chow diet St-1 (Mlýn Kocanda, Praha, Czech Republic). One week before the experiment, the mice were placed into separated cages and habituated to an automatic system for food intake monitoring (Developmental workshop IOCB, Prague, Czech Republic). Animals were randomized into two groups, LPS group and control group. At 17:00, the LPS group was injected intraperitoneally (IP) with 100 μg/kg of body weight LPS (Escherichia coli 055:B5 serotype, Sigma) in a volume of 0.2 ml saline. The control group received an IP injection with an equal volume of saline. Food intake was monitored automatically in 10-min intervals. […] 14 (n=4-5 mice per group). Food intake was monitored for another 10 hours.\nAt the end of the experiment, mice were sacrificed by decapitation, blood was collected, plasma was prepared and stored at −20° C. Hypothalamus was dissected, frozen on dry ice and stored at −80° C., musculus gastrocnemius was dissected, flash-frozen in liquid nitrogen and stored at -80° C. C-reactive protein levels and pro-inflammatory/anti-inflammatory cytokine levels in blood plasma were determined using C-Reactive Protein Mouse ELISA (Biovendor, Bmo, Czech Republic) and Milliplex MAP Rat Cytokine/Chemokine Magnetic Bead Panel (Merck-Millipore, St. Charles, Mo., USA), respectively. Samples of hypothalamus and muscle were homogenized, total RNA was extracted and RNA concentration was determined as previously described (Holubova et al., 2014). Determination of the mRNA expression of genes of interest (MuRFI and MAFbx in muscle, NPY and AgRP in hypothalamus) was performed using an ABI PRISM 7500 instrument (Applied Biosystems, Foster City, Calif., USA). The expression of GAPDH or GUSH was used to compensate for variations in input RNA amounts and the efficiency of reverse transcription, and the modified formula 2-ΔCt was used to calculate the relative gene expression."}, "human GHS-R1a receptor": {"molecular_target": "T1, human GHS-R1a receptor (Homo sapiens, UniProt Q92847)", "T1 construct": "purchased Multispan, Hayward, Calif., USA; host or cells: HEK293T cells, isolated plasma membranes", "T1 sequence (Q92847 whole entry)": "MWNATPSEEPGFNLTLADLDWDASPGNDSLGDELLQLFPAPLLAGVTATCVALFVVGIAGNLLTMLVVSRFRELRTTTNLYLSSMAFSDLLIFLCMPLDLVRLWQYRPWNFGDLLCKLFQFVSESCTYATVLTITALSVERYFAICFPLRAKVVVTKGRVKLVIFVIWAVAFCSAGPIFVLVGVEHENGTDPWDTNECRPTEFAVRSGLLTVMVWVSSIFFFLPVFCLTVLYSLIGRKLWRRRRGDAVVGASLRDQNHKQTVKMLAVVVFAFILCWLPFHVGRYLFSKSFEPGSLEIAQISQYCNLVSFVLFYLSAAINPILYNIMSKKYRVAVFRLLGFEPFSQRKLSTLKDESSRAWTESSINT", "assay": "Competitive binding studies (displacement of 125I-ghrelin)", "conditions": "relative to ghrelin = 100", "method": "Isolated plasma membranes from the HEK293T cells with transfected human GHS-R1a receptor (Multispan, Hayward, Calif., USA) were used. […] Experiments were carried out in duplicates at least three times. Competitive binding curves were plotted using GraphPad Prism Software (San Diego, Calif., USA) while comparing the best fit for single binding sites models."}, "fed C57BL/6 male mice": {"test_system": "fed C57BL/6 male mice", "assay": "Effect of SC administered ghrelin analogs on food intake", "assay_type": "in vivo", "summary_of_the_method": "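Food-withdrawn male C57BL/6 mice, dosed SC, received preweighed chow 15 min after injection; intake recorded every 30 min for 8-10 hours, ≥5 mice/group. ED50 = dose giving half-maximal effect at 250 min; maximal effect taken at 480 min after 5 mg/kg.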"}, "[3]": {"assay": "Pharmacokinetics in vivo after SC administration to mice", "conditions": "SC 5 mg/kg", "method": "Mice were housed at a temperature 22±2° C. under a daily cycle of 12/12 h light/dark (light from 6:00) with free access to water and a standard chow diet St-1 (Mlýn Kocanda, Praha, Czech Republic).\n4, 6, 14 and 18 at a dose of 5 mg/kg of body weight (0.2 ml/mouse, n=4). Blood was collected from tails before injection and 0.5, 1, 2, 4, 8, 16 and 24 h after injection. Plasma was separated and stored at −20° C."}, "[4]": {"conditions": "single SC 5 mg/kg after LPS, 5 mg/kg"}, "[5]": {"conditions": "single SC administration, LPS model"}},
  "note": "“Also recorded” adds a separate entry of the source.",
  "data": [
    {"smiles": "CCCCCCCCCCCCCC(=O)NC[C@H](NC(=O)[C@H](CO)NC(=O)CNC)C(=O)N[C@@H](Cc1ccc(Cl)c(Cl)c1)C(=O)N[C@@H](CC(C)C)C(=O)N[C@@H](CO)C(=O)N1CCC[C@H]1C(=O)N[C@@H](CCC(=O)O)C(=O)N[C@@H](Cc1c[nH]cn1)C(=O)N[C@@H](CCC(N)=O)C(=O)N[C@@H](CCCCN)C(=O)N[C@@H](C)C(=O)N[C@@H](CCC(N)=O)C(=O)N[C@@H](CCC(N)=O)C(=O)N[C@@H](CCCNC(=N)N)C(=O)N[C@@H](CCCCN)C(=O)N[C@@H](CCC(=O)O)C(=O)N[C@@H](CO)C(=O)N[C@@H](CCCCN)C(=O)N[C@@H](CCCCN)C(=O)N1CCC[C@H]1C(=O)N1CCC[C@H]1C(=O)N[C@@H](C)C(=O)N[C@@H](CCCCN)C(=O)N[C@@H](CC(C)C)C(=O)N[C@@H](CCC(N)=O)C(=O)N1CCC[C@H]1C(=O)N[C@@H](CCCNC(=N)N)C(=O)O", "note": "[Analog 14]", "values": [
      {"measurement": "GH levels in plasma", "setting": "[1]", "value": "did not alter the GH levels"},
      {"measurement": "levels of C-reactive protein", "setting": "[2]; single SC 5 mg/kg after LPS", "value": "tended to normalize levels of C-reactive protein"},
      {"measurement": "levels of pro-inflammatory cytokine IL-2", "setting": "[2]; single SC 5 mg/kg after LPS", "value": "normalized levels of pro-inflammatory cytokine IL-2"},
      {"measurement": "food intake", "setting": "[2]; single SC 5 mg/kg after LPS, monitored 10 hours, 5 mg/kg", "value": "significant increase in food intake; also recorded: increased food intake"},
      {"measurement": "expression of mRNA for orexigenic neuropeptides NPY and AgRP in hypothalamus", "setting": "[2]; [4]", "value": "significantly increased expression of mRNA; also recorded: increased expression of orexigenic neuropeptides in the hypothalamus"},
      {"measurement": "mRNA expression for markers of muscle degradation MuRF-1 and MAFbx", "setting": "[2]; [4]", "value": "tended to decrease mRNA expression; also recorded: tended to decrease expression of markers of muscle degradation"},
      {"measurement": "cachectic state", "setting": "[2]; [5]", "value": "improved the cachectic state"},
      {"measurement": "plasmatic levels of pro-inflammatory cytokines", "setting": "[2]; [5]", "value": "reduced plasmatic levels of pro-inflammatory cytokines"},
      {"measurement": "% of ghrelin binding", "setting": "human GHS-R1a receptor", "value": 7, "unit": "%"},
      {"measurement": "maximal effect at 5 mg/kg on food intake", "setting": "fed C57BL/6 male mice; SC 5 mg/kg, evaluated 480 min after administration", "value": "235.5 % of Dpr^3ghr"},
      {"measurement": "ED50 (250 min after injection), effect on food intake", "setting": "fed C57BL/6 male mice; SC, fed mice, 250 min after injection", "value": 0.65, "unit": "mg/kg"},
      {"measurement": "stability in vivo compared with ghrelin or Dpr^3ghrelin", "setting": "[3]", "value": "significantly more stable than ghrelin or Dpr^3ghrelin"},
      {"measurement": "half-life", "setting": "[3]; male, C57BL/6, mouse, plasma", "value": 5, "unit": "h"}
    ]}
  ]
}
